From US11883430B2, “CD38-NAD+ regulated metabolic axis in anti-tumor immunotherapy” (MUSC FOUNDATION FOR RESEARCH DEVELOPMENT, priority 2016, dated 2024) come the findings set out here.

Assay [1] deals with B16-F10-HLA-A2+ murine melanoma. In words: Adoptive T cell transfer, s.c. B16-F10-HLA-A2+ melanoma, tumor growth. Type of assay: in vivo, mouse. To be noted: Th1/17 differentiated ex vivo with FK866 or Ex527 vs untreated/vehicle (FIGS. 4E, 5F).
The test system of assay [2] is Th1 cells. In words: Intracellular cytokine (IFNγ, IL17) flow cytometry after PMA and ionomycin. The class given is cell-based, mouse. As to conditions: Th1 subsets (FIGS. 12A and 12B). Here is the method:
FIGS. 12A-12D: Loss of Sirt1 expression and NAD+ levels on Th1/17 cell phenotype and function (see FIG. 5). (A) Purified CD4^+ T cells from C57BL/6 were used to differentiate to Th1/17 cells either alone or in the presence of Ex527, a pharmacological inhibitor of Sirt1. Cells were then restimulated with PMA and ionomycin for 4 hr in presence of golgi block to stain for intracellular accumulation of cytokines IFNγ and IL17. (B) Th1 cells were cultured either in presence or absence of NAD+ inhibitor FK866 (10 nM) and intracellular staining was performed for IFNγ and IL17. Data was acquired using FACS and analysis was carried out using FlowJo software. (C-D) Purified splenic CD4^+ T cells from either C57BL/6 WT or Sirt1fl/flCD4Cre (Sirt1KO) mouse were used to ex vivo program for Th1/17 cells. RNA was prepared and quantitative PCR analysis was performed for the expression of various glycolysis (C) and glutaminolysis (D) associated genes in either WT or Sirt1KO Th1/17 cells. Data in section A-D are representative of three independent experiments.
T cell differentiation: Naïve CD4^+ T cells were purified from the total splenocytes of 6-9 weeks old WT (C57BL/6) and KO (Foxo1^fl/flLck^cre, Sirt1^fl/flCD4^cre, CD38KO) mice using CD4^+ T cell isolation kit (Miltenyi Biotec) according to manufacturer's protocol. […]
In general terms: Flow cytometry measures light scatter and fluorescence of single cells or particles in a stream.

Assay [3] relates to Th1/17 cells. The description is as above. Type of assay: cell-based, mouse. As to conditions: WT T cells programmed in presence of Ex527; sentence says both Th17 and Th1/17 cells (FIG. 12A). From the text:
T cell differentiation: Naïve CD4^+ T cells were purified from the total splenocytes of 6-9 weeks old WT (C57BL/6) and KO (Foxo1^fl/flLck^cre, Sirt1^fl/flCD4^cre, CD38KO) mice using CD4^+ T cell isolation kit (Miltenyi Biotec) according to manufacturer's protocol. Total splenocytes from 6-9 weeks old TCR transgenic mouse TRP-1 (bears class-II restricted CD4^+ T cells) or Pmel (bears class-I restricted CD8^+ T cells) or TCR-I (bears class-I restricted CD8^+ T cells) were also used. Within experiments mice were age and sex matched. Purified naïve CD4^+ T cells or total splenocytes were differentiated to Th1 or Tc1 (10 ng/ml IL12, 50 U/ml IL2 and 10 μg/ml anti-IL4), Th17 or Tc17 (3 ng/ml TGFβ, 25 ng/ml IL6, 10 μg/ml anti-IL4 and 10 μg/ml anti-IFNγ), Th1/17 or Tc1/17 (20 ng/ml IL1β, 25 ng/ml IL6, 10 ng/ml IL12, 20 ng/ml IL23, 400 pg/ml TGFβ, 10 μg/ml anti-IL4, 5 μg/ml anti-IFNγ), iTreg (5 ng/ml TGFβ, 100 IU/ml IL2, 10 μg/ml anti-IL4 and 10 μg/ml anti-IFNγ or Th0 (50 IU/ml IL2) in presence of plate bound anti-CD3 (5 μg/ml) and anti-CD28 (5 μg/ml). For TRP-1, gp100 or Sv40 specific generation of different Th or Tc subsets, total splenocytes from either TRP-1, Pmel or TCR-I TCR transgenic mice were stimulated with 1 μg/ml respective peptides in presence of above-mentioned polarizing conditions. T cells were differentiated for three days in IMDM media supplemented with 10% FCS, 4 mM L-glutamine, 100 U/ml penicillin, 100 μg/ml streptomycin, 55 μM beta-mercaptoethanol under 7% CO2, atmospheric oxygen at 37° C. in a humidified incubator. For evaluation of intracellular cytokines by flow cytometry, T cells were re-stimulated with PMA (500 ng/ml) and Ionomycin (500 ng/ml) for 4 hr in presence of Glogi inhibitors. […]
Flow cytometry: Staining for cell surface markers was performed by incubating cells with antibody at 1:200 dilutions in FACS buffer (0.1% BSA in PBS) for 30 min at 4° C. […] Samples were acquired on LSRFortessa and analysed with FlowJo software (Tree Star, OR).

The subject of assay [4] is Th1/17 cells. Description: qPCR gene expression in Th1/17 cells. To be noted: Th1/17 differentiated with FK866 10 nM or Ex527 (FIGS. 4D, 5D). Type of assay: cell-based, mouse. How it is done: Real-time quantitative-PCR: Total RNA was extracted from pellets of the indicated T cell subsets (2×10^6 cells) using Trizol reagent (Life technologies, Grand Island, NY). cDNA was generated from 1 μg total RNA using iScript cDNA Synthesis Kit (BioRad, Hercules, CA). SYBR Green incorporation quantitative real-time PCR was performed using a SYBR Green mix (Biorad, Hercules, CA) in the CFX96 Detection System (BioRad, Hercules, CA). Expression of different genes was quantified relative to Actb.
In general terms: Quantitative PCR measures a nucleic acid by following its amplification.

Assay [5] relates to NAD+. In words: Intracellular NAD+ level. The class given is cell-based, mouse. To be noted: Th1/17 differentiated with 2DG 1 mM, DON 3 μM or FK866 10 nM (FIGS. 11K, 11L). Here is the method: NAD^+, Sirt1 activity and Foxo1 activity assay: Intracellular NAD^+ level in T cells were measured spectrophotometrically following the manufacturer's protocol (Cayman chemical, Ann Arbor, MI). Using equal amounts of nuclear protein extracted by NE-PER Nuclear and Cytoplasmic Extraction Reagents (Thermo Fisher Scientific, Waltham, MA), Sirt1 activity (Universal Sirt1 Activity Assay Kit, Abcam, Cambridge, MA) and Foxo1 activity (FKHR transcription Factor Assay Kit, Active Motif, Carlsbad, CA) were determined as per manufacturer's protocol.

Assay [6] deals with Th1 cells. Description: Seahorse oxygen consumption rate with etomoxir. To be noted: etomoxir 200 μM (FIG. 3J). Type of assay: cell-based, mouse. From the text: (§1) FIGS. 3A-3P: Hybrid Th1/17 cells are metabolically distinct from Th1 and Th17 cells and depend upon glutaminolysis. The ex vivo programmed Th1, Th17 and Th1/17 cells were used to determine: (A) Glucose uptake using 2NBDG. Adjacent bar diagram represents the cumulative data of mean fluorescence intensity (MFI) from three independent experiments. (B) ECAR time course in response to glucose, oligomycin and 2DG (left panel). […] (C) Intracellular expression of GAPDH by FACS. Adjacent bar represents cumulative data from 3 experiments. (D) Glycolysis associated genes using qPCR. Genes including Glut1, HKI, HKII, Pfkb1, Pkm2, and LdhA are lower in Th1/Th17 while Pfkb3 and Pgam 1 are higher. (E-G) Oxygen consumption rate (OCR) under basal condition and in response to indicated mitochondrial inhibitors. Graphs representing time course (E), basal OCR (F), and OCR/ECAR ratio (G). (H) Expression of CTP1a using qPCR. […] (M) Uptake of radiolabelled glutamine that was measured in count per minute (CPM). […] (P) TRP-1 Th1/17 cells differentiated either in presence of vehicle control (DMSO) or DON (3 μM) were adoptively transferred (0.5×10^6) in 9 days s.c. established B16-F10 melanoma tumor bearing mice and tumor growth was measured. […]
(§2) Oxygen consumption rate (OCR) and Extracellular acidification rate (ECAR) was determined using Seahorse Xfe96 analyser (Agilent Technologies, Santa Clara, CA). […] OCR, a measure of OXPHOS, was analysed under basal condition or in response to 200 μM Etomoxir (Sigma-Aldrich, St. Louis, MO) followed by 1.0 μM oligomycin (Sigma-Aldrich, St. Louis, MO), 1.0 μM fluoro-carbonyl cyanide phenylhydrazone (FCCP) (Sigma-Aldrich, St. Louis, MO) and 2 μM rotenone (Sigma-Aldrich, St. Louis, MO) plus 100 nM antimycin A (Sigma-Aldrich, St. Louis, MO). ECAR, a measure of glycolysis was measured under basal conditions and in response to glucose (5.5 mM), Oligomycin (1.0 μM), 2-deoxyglucose (2-DG) (100 mM) (Sigma-Aldrich, St. Louis, MO).

Assay [7] has as its system Th17 cells. In words: Seahorse oxygen consumption rate with etomoxir. Type of assay: cell-based, mouse. To be noted: etomoxir 200 μM (FIG. 3I).
Description: as §1, §2

The subject of assay [8] is Th1/17 cells. Description: Seahorse oxygen consumption rate with etomoxir. Type of assay: cell-based, mouse. To be noted: etomoxir 200 μM (FIG. 3K).
Description: as §1, §2

Consider `NC(=O)C1CCCc2c1[nH]c1ccc(Cl)cc21` (centres unmarked) [Ex527], for which, in assay [1], the “tumor control by inhibitor-treated Th1/17 cells upon adoptive transfer” value is listed as “reduced ability to control tumor growth as compared to the vehicle treated cells”. For the same compound, the IFNγ secreting fraction entry in assay [2] is “No significant difference”. Besides, the “frequency of IL17+ population” value in assay [3] is recorded as “decreased frequency of IL17^+ population”. The “expression of stemness-associated genes” value in assay [4] was “markedly reduced”.

As for `O=CC[C@@H](O)[C@H](O)[C@H](O)CO` [2DG, 2-Deoxy-D-glucose], the “NAD+ levels in Th1/17 cells” value in assay [5] is “increased the NAD^+ level in Th1/17 cells”.

For the compound `CCOC(=O)[C@@]1(CCCCCCOc2ccc(Cl)cc2)CO1` [etomoxir], the OXPHOS result in assay [6] and in assay [8] was “mostly unaffected” in each case. For the same compound, the “OCR and SRC values” in assay [7] is “significantly depleted OCR and SRC values”.
